The results in this text go back to patent publication US5691349A, “Quinclidine derivatives as squalene synthase inhibitors” (Zeneca Limited, priority 1992, dated 1997).

Structures are written as SMILES. Where a name gives a salt, the structure may show the parent alone.

Assay [1] concerns the target T1, squalene synthetase (Rattus norvegicus, UniProt Q02769).
T1 construct: rat liver microsomal protein (20 μg); from tissue; host or cells: rat liver microsomes
T1 sequence (Q02769 1-416): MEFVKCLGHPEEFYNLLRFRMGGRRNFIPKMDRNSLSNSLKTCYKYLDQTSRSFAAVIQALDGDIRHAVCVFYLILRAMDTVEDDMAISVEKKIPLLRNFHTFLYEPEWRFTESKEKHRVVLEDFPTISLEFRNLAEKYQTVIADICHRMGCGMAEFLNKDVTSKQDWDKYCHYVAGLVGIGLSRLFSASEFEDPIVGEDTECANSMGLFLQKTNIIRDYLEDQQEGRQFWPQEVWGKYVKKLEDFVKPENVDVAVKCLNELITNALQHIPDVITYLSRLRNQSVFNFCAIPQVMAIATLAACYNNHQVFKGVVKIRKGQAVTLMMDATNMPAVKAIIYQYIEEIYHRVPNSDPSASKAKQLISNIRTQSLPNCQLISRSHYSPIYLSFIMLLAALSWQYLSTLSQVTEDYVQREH
Kind of assay: Inhibition of Squalene Synthetase (prevention of squalene formation from tritiated farnesyl pyrophosphate, rat liver microsomal protein). The settings on record: rat liver microsomes; 1-[3H]-farnesyl pyrophosphate 20 μM; 37° C.; 15 minutes; read-out: IC50 (concentration which results in a 50% inhibition of squalene production). The assay is classed as biochemical. Here is the method: (a) Inhibition of Squalene Synthetase
In this test, the ability of a compound to prevent the formation of squalene from a radioactive substrate (tritiated farnesyl pyrophosphate) is assessed.
The test compound is incubated at a concentration of 25 micromolar in 200 μl of a buffered solution containing potassium phosphate (50 mM), MgCl2 (4.95 mM), KF (9.9 mM), NADPH (0.9 mM) and rat liver microsomal protein (20 μg). Rat liver microsomes are prepared by the method described in published European Patent Application No. 324,421 and stored in liquid nitrogen prior to assay. Assay vials are kept at 37° C. throughout the incubation.
The reaction is started with the addition of the substrate (1-[^3 H]-farnesyl pyrophosphate), final concentration 20 μM, and stopped after 15 minutes reaction time with the addition of 50 μl of 4% KOH. The reaction products are separated from unreacted substrate after application to a C-18 octadecyl 1 ccBond column (Analytichem Int product No. 617101). An aqueous fraction is eluted with 250 μl of 0.1M KOH. Squalene is then eluted with 1.0 ml 10% ethylacetate in hexane and radioactivity determined. The difference in radioactivity in the presence and absence of the test compound is used to determine the level of inhibition. […] The IC50 can then be determined from a plot of percentage inhibition against concentration of test compound.

In assay [2] the test system is de novo hepatic cholesterol synthesis. Kind of assay: Acute rat cholesterol synthesis assay (de novo hepatic cholesterol synthesis from 14C-acetate). The settings on record: female rats, oral gavage, ip or iv dosing (route not given). In kind it is in vivo. The procedure:
(b) Acute rat cholesterol synthesis assay.
This is an acute in vivo test in the rat to measure de novo hepatic cholesterol synthesis from exogenously administered ^14 C-acetate.
Female rats (35-55 g) are housed in reverse lighting conditions (red light from 0200 h-1400 h) for a period of about 2 weeks prior to test. Animals are allowed free access to chow and drinking water throughout this period. At test, animals should weigh 125-150 g.
Test compounds may be administered by oral gavage, dissolved or suspended in 0.5% polysorbate, or by ip or iv dosing. Control animals receive vehicle alone. After 1 hour the rats are injected ip with 25 μCi [2-^14 C]-acetate (NEN DUPONT. specific activity, 45-60 mCi/mmol NEC-085H, or AMERSHAM specific activity, 50-60 mCi/mmol CFA 14) in a volume of 0.25 ml saline (100 μCi/ml). After a further hour, rats are terminally anaesthetised with halothane and a blood sample obtained from the abdominal vena cava.
1 ml of plasma is lyophilised and then saponified in 2 ml ethanolic KOH (1 part 33% KOH, 9 parts ethanol) at 75° C. for 2 hours. After addition of an equal quantity of water, non-saponifiable lipids are extracted with two 5 ml volumes of hexane. The hexane extracts are evaporated to dryness and the residues dissolved in ethanol to determine cholesterol specific radioactivity. EC50 values can be determined in the standard way.

For `CCCCOc1ccc(CCC2CN3CCC2CC3)cc1` (centres unmarked) [Example 4, 3-[2-(4-butoxyphenyl)ethyl]-quinuclidine hydrochloride], the IC50 in assay [1] was 33 nM. `CCCCCc1ccc(C#CC2(O)CN3CCC2CC3)cc1` (centres unmarked) [Example 18, 3-[2-(4-pentylphenyl)ethynyl]-3-hydroxyquinuclidine] yielded an ED50 in assay [2] of around 21.5 mg/kg.
